Test results as given in the supplement of paper PMC12076712.
Each block holds one molecule with its values, some of them ahead of it.

Key:
Assay in all cases: pIC50, kinobeads binding competition
ACVR2B = ACVR2B (UniProt Q13705)
In short: (§1)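 Either living Jurkat cells (60 min at 37 °C, then lysis) or lysates (60 min at 4 °C) were treated with nine compound concentrations from a top of 30 μM, in 1:4 steps for cells and 1:5 steps for lysates. The lysates were from Jurkat cells or a 1:1:1:1 mix of HEK293, K-562, HepG2 and placenta. Kinobeads-bound proteins were digested and quantified by TMT10 LC-MS/MS. pIC50 was calculated by logistic dose-response fitting (R drc package) of fold changes relative to vehicle, in biological duplicates.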

FGFR2 = FGFR2 (UniProt P21802); settings: cell material: Lysate mix
In short: as §1

Fyn = Fyn (UniProt P06241)
In short: as §1

IRAK1 = IRAK1 (UniProt P51617)
In short: as §1

MARK2 = MARK2 (UniProt Q7KZI7)
In short: as §1

MAST4 = MAST4 (UniProt O15021)
In short: as §1

PLK1 = PLK1 (UniProt P53350)
In short: as §1

TAOK1 = target: T1, TAOK1 (UniProt Q7L7X3)
T1 sequence (whole entry): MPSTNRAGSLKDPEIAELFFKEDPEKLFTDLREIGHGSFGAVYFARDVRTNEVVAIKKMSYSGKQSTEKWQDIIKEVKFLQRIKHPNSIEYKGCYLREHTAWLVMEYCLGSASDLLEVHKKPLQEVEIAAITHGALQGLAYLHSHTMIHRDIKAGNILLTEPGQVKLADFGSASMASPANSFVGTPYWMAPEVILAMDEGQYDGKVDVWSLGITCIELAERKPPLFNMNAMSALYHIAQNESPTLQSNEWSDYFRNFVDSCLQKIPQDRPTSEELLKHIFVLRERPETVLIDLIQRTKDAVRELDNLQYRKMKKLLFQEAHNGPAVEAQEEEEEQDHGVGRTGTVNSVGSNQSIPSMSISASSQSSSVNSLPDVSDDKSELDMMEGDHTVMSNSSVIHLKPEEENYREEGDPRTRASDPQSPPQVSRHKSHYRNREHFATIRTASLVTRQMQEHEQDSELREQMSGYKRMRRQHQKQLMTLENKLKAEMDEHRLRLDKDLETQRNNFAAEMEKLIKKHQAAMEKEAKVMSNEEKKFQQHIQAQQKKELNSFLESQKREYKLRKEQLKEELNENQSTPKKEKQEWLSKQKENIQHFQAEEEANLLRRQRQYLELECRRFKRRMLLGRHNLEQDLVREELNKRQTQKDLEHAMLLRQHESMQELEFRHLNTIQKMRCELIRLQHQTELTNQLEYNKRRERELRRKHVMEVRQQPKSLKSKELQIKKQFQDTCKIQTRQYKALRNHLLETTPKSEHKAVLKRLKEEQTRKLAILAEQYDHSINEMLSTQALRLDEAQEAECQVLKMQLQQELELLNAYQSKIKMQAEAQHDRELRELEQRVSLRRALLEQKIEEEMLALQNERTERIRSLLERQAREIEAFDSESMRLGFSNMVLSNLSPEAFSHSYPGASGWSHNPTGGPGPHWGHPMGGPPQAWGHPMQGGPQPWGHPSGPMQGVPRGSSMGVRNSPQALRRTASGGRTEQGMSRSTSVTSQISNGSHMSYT
In short: as §1

UniProt O14920 = target: T2, UniProt O14920
T2 sequence (whole entry): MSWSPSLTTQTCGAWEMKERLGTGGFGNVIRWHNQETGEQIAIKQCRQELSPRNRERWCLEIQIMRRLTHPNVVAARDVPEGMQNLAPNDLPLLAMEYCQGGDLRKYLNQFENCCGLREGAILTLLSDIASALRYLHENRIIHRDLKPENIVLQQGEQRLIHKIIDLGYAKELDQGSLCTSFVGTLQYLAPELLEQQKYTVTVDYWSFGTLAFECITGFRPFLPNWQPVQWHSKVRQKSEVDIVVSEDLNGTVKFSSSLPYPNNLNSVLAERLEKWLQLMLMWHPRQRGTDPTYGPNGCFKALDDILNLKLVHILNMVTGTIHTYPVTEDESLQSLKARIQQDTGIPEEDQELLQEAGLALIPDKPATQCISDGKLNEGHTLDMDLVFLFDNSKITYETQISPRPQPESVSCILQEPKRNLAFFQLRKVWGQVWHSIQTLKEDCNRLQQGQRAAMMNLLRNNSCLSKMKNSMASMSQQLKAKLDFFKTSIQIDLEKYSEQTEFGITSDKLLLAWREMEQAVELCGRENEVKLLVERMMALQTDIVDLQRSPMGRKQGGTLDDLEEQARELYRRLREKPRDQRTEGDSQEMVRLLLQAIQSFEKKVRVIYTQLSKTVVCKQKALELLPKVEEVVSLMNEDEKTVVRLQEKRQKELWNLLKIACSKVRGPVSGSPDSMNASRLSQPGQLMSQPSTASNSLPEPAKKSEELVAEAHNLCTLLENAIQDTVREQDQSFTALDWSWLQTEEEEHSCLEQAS
In short: as §1

UniProt O94804 = target: UniProt O94804
In short: as §1

UniProt P27448 = target: UniProt P27448
In short: as §1

UniProt P28482 = target: UniProt P28482
In short: as §1

UniProt P48729 = target: UniProt P48729
In short: as §1

UniProt P49840 = target: UniProt P49840
In short: as §1

UniProt P68400 = target: UniProt P68400
In short: as §1

UniProt Q00536 = target: UniProt Q00536
In short: as §1

UniProt Q05397 = target: UniProt Q05397
In short: as §1

UniProt Q13233 = target: UniProt Q13233
In short: as §1

UniProt Q9Y2I7 = target: UniProt Q9Y2I7
In short: as §1

Chain of UniProt Q9Y2I7 (Q9Y2I7 whole entry): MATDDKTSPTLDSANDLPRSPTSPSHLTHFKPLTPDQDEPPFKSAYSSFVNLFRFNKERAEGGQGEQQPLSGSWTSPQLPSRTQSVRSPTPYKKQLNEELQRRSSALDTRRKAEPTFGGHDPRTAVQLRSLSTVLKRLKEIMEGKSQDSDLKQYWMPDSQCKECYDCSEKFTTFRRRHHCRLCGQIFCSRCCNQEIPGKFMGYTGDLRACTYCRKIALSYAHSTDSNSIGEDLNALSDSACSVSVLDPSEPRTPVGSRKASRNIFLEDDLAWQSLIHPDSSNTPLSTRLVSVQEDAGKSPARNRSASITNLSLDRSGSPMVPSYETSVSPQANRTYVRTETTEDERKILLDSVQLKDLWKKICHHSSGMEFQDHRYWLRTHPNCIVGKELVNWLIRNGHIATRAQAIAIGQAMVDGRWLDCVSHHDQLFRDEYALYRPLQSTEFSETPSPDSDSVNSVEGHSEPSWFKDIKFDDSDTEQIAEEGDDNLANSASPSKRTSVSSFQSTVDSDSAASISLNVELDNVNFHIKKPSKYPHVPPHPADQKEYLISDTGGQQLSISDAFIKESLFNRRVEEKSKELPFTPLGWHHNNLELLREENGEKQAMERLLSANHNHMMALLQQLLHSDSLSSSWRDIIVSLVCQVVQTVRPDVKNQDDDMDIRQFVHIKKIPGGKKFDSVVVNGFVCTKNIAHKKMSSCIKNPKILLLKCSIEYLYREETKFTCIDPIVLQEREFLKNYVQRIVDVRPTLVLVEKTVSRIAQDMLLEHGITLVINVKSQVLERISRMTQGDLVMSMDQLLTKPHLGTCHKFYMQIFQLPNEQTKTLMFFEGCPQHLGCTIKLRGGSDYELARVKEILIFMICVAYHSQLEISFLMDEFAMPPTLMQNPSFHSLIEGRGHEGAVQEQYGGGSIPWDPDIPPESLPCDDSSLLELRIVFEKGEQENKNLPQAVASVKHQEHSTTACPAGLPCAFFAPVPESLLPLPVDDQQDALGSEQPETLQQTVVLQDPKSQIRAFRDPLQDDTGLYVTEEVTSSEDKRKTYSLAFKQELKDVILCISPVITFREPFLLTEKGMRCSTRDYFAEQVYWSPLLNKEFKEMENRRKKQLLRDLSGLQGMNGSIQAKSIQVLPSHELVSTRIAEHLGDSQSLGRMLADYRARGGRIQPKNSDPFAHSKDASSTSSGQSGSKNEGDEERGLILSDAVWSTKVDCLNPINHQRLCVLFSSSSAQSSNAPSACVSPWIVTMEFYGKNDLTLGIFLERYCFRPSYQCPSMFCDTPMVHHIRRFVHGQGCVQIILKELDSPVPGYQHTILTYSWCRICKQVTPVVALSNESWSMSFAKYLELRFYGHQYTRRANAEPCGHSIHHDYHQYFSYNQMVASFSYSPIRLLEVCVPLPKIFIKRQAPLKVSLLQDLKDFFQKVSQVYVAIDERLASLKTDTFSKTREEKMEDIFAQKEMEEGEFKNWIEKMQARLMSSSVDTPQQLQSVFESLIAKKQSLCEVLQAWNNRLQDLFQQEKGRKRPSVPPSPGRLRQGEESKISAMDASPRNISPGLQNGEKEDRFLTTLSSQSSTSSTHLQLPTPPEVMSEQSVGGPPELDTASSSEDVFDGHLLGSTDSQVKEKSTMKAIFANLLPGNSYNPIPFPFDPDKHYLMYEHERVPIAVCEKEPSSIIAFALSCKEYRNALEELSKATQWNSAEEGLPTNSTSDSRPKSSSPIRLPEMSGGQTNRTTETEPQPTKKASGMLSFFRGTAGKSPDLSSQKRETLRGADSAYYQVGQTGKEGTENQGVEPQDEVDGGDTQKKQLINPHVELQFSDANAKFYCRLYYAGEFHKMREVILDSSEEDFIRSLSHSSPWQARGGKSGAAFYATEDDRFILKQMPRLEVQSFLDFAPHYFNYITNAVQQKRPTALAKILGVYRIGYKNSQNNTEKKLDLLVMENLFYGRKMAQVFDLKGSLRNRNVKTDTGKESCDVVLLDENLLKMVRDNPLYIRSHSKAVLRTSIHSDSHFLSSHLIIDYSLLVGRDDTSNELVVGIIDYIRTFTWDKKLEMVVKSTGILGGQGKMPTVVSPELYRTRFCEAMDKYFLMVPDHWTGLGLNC
Chain of UniProt P27448 (P27448 whole entry, looked up): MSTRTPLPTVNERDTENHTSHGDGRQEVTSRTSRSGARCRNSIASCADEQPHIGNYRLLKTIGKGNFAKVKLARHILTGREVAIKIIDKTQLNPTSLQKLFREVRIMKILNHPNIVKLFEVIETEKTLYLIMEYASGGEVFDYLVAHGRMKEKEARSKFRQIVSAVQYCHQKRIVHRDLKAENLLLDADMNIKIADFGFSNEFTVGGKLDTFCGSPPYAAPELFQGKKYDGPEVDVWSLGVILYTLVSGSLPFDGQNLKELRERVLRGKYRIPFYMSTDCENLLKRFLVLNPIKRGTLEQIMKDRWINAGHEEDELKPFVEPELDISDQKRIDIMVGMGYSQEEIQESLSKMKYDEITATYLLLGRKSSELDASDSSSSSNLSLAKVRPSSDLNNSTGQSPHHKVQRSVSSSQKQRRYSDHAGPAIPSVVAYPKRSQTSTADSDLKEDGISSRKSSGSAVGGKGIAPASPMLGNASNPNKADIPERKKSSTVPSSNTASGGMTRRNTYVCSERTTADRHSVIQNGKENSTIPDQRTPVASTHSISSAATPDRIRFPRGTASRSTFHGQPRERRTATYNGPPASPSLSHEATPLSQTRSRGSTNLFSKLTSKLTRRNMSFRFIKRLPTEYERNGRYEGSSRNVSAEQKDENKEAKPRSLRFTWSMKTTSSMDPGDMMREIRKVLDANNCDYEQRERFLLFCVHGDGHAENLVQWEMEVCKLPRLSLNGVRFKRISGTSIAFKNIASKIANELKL
Chain of UniProt Q05397 (Q05397 whole entry, looked up): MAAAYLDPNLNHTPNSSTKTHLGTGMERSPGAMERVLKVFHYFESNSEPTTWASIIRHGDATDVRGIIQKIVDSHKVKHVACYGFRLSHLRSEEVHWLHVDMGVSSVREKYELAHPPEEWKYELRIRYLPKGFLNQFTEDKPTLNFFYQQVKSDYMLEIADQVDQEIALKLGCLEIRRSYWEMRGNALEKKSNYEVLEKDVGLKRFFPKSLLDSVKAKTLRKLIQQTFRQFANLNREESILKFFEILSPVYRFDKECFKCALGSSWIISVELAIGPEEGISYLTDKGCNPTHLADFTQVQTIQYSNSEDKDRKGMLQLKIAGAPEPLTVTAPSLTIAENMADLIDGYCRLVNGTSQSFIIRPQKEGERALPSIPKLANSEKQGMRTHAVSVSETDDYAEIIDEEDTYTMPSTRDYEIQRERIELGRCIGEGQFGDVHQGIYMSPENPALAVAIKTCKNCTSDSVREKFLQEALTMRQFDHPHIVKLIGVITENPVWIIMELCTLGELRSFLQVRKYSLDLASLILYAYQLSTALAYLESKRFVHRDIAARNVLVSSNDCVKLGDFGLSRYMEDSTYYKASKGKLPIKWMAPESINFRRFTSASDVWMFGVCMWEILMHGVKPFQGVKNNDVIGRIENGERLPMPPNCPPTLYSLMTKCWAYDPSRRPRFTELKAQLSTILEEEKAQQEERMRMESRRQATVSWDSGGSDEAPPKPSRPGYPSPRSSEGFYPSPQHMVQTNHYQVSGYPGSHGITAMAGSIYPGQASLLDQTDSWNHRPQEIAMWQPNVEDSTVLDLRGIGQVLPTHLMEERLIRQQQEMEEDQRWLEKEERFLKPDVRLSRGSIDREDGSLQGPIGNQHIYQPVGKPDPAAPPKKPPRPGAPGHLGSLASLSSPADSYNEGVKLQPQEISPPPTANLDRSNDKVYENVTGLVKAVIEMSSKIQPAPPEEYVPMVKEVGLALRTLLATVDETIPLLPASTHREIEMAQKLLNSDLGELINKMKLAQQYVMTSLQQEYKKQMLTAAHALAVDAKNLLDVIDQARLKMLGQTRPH
Chain of UniProt P48729 (P48729 whole entry, looked up): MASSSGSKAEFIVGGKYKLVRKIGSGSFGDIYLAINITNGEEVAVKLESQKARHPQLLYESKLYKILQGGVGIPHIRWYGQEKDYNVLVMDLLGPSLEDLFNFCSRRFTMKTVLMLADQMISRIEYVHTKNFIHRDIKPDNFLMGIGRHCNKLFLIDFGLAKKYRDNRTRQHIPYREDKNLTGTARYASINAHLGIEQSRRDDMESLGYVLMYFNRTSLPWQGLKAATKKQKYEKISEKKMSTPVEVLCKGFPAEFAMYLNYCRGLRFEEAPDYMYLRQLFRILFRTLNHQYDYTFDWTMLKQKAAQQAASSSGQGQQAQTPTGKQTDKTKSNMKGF
Chain of Fyn (P06241 whole entry, looked up): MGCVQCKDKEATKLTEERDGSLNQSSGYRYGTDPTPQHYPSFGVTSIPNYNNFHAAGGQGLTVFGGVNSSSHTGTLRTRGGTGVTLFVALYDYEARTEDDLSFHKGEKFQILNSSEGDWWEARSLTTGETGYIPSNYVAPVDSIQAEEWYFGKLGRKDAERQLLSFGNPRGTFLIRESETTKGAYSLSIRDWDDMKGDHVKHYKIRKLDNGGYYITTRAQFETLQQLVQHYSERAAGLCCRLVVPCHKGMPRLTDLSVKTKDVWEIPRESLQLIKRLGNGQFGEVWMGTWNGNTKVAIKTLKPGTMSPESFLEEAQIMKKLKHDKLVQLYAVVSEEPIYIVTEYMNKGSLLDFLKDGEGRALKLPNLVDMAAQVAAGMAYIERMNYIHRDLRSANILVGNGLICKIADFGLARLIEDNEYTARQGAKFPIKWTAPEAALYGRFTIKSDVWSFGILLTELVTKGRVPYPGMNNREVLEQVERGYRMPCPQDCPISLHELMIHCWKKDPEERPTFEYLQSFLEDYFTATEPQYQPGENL

SMILES: C#CCNC(=O)c1cc(Nc2cc(C3CC3)[nH]n2)nc(N2CCN(Cc3ccc(S(=O)(=O)F)cc3)CC2)n1
pIC50 (ACVR2B; cell material: Jurkat lysate): < 4.52 | pIC50 (ACVR2B; cell material: Lysate mix): < 4.52 | pIC50 (FGFR2): 4.94 | pIC50 (Fyn; cell material: Jurkat cells): 5.9 | pIC50 (Fyn; cell material: Lysate mix): 5.9 | pIC50 (IRAK1; cell material: Jurkat cells): < 4.52 | pIC50 (IRAK1; cell material: Jurkat lysate): 5.37 | pIC50 (IRAK1; cell material: Lysate mix): 5.96 | pIC50 (MARK2; cell material: Jurkat cells): 5.92 | pIC50 (MARK2; cell material: Jurkat lysate): < 4.52 | pIC50 (MARK2; cell material: Lysate mix): < 4.52 | pIC50 (MAST4; cell material: Jurkat lysate): 6.46 | pIC50 (MAST4; cell material: Lysate mix): 7 | pIC50 (PLK1; cell material: Jurkat cells): 5.83 | pIC50 (PLK1; cell material: Jurkat lysate): < 4.52 | pIC50 (PLK1; cell material: Lysate mix): < 4.52 | pIC50 (TAOK1; cell material: Jurkat cells): 5.6 | pIC50 (TAOK1; cell material: Jurkat lysate): < 4.52 | pIC50 (TAOK1; cell material: Lysate mix): < 4.52 | pIC50 (UniProt O14920; cell material: Jurkat cells): < 4.52 | pIC50 (UniProt O14920; cell material: Jurkat lysate): < 4.52 | pIC50 (UniProt O14920; cell material: Lysate mix): < 4.52 | pIC50 (UniProt O94804; cell material: Jurkat cells): 5.04 | pIC50 (UniProt O94804; cell material: Jurkat lysate): < 4.52 | pIC50 (UniProt O94804; cell material: Lysate mix): < 4.52 | pIC50 (UniProt P27448; cell material: Jurkat cells): 5.81 | pIC50 (UniProt P27448; cell material: Jurkat lysate): < 4.52 | pIC50 (UniProt P27448; cell material: Lysate mix): < 4.52 | pIC50 (UniProt P28482; cell material: Jurkat cells): 5.48 | pIC50 (UniProt P28482; cell material: Jurkat lysate): < 4.52 | pIC50 (UniProt P28482; cell material: Lysate mix): < 4.52 | pIC50 (UniProt P48729; cell material: Jurkat cells): 5.51 | pIC50 (UniProt P48729; cell material: Jurkat lysate): < 4.52 | pIC50 (UniProt P48729; cell material: Lysate mix): < 4.52 | pIC50 (UniProt P49840; cell material: Jurkat cells): 5.04 | pIC50 (UniProt P49840; cell material: Jurkat lysate): < 4.52 | pIC50 (UniProt P49840; cell material: Lysate mix): < 4.52 | pIC50 (UniProt P68400; cell material: Jurkat cells): 5.62 | pIC50 (UniProt P68400; cell material: Jurkat lysate): < 4.52 | pIC50 (UniProt P68400; cell material: Lysate mix): 5.02 | pIC50 (UniProt Q00536; cell material: Jurkat cells): 6.35 | pIC50 (UniProt Q00536; cell material: Jurkat lysate): 5.01 | pIC50 (UniProt Q00536; cell material: Lysate mix): 5.89 | pIC50 (UniProt Q05397; cell material: Jurkat cells): < 4.52 | pIC50 (UniProt Q05397; cell material: Jurkat lysate): < 4.52 | pIC50 (UniProt Q05397; cell material: Lysate mix): < 4.52 | pIC50 (UniProt Q13233; cell material: Jurkat lysate): < 4.52 | pIC50 (UniProt Q13233; cell material: Lysate mix): < 4.52 | pIC50 (UniProt Q9Y2I7; cell material: Jurkat cells): 5.27 | pIC50 (UniProt Q9Y2I7; cell material: Jurkat lysate): < 4.52 | pIC50 (UniProt Q9Y2I7; cell material: Lysate mix): < 4.52

pIC50 (ACVR2B; cell material: Lysate mix): < 4.52 | pIC50 (FGFR2): < 4.52 | pIC50 (Fyn; cell material: Lysate mix): 6.74 | pIC50 (IRAK1; cell material: Lysate mix): 4.8 | pIC50 (MARK2; cell material: Lysate mix): < 4.52 | pIC50 (MAST4; cell material: Lysate mix): 6.4 | pIC50 (PLK1; cell material: Lysate mix): < 4.52 | pIC50 (TAOK1; cell material: Lysate mix): < 4.52 | pIC50 (UniProt O14920; cell material: Lysate mix): < 4.52 | pIC50 (UniProt O94804; cell material: Lysate mix): < 4.52 | pIC50 (UniProt P27448; cell material: Lysate mix): < 4.52 | pIC50 (UniProt P28482; cell material: Lysate mix): < 4.52 | pIC50 (UniProt P48729; cell material: Lysate mix): < 4.52 | pIC50 (UniProt P49840; cell material: Lysate mix): < 4.52 | pIC50 (UniProt P68400; cell material: Lysate mix): 5.15 | pIC50 (UniProt Q00536; cell material: Lysate mix): 4.76 | pIC50 (UniProt Q05397; cell material: Lysate mix): < 4.52 | pIC50 (UniProt Q13233; cell material: Lysate mix): < 4.52 | pIC50 (UniProt Q9Y2I7; cell material: Lysate mix): < 4.52
SMILES: CCNC(=O)c1cc(Nc2cc(C)[nH]n2)nc(N2CCN(Cc3ccc(S(=O)(=O)F)cc3)CC2)n1

pIC50 (ACVR2B; cell material: Lysate mix): < 4.52 | pIC50 (FGFR2): 5.24 | pIC50 (Fyn; cell material: Lysate mix): 5.81 | pIC50 (IRAK1; cell material: Lysate mix): 5.72 | pIC50 (MARK2; cell material: Lysate mix): < 4.52 | pIC50 (MAST4; cell material: Lysate mix): 6.37 | pIC50 (PLK1; cell material: Lysate mix): < 4.52 | pIC50 (TAOK1; cell material: Lysate mix): < 4.52 | pIC50 (UniProt O14920; cell material: Lysate mix): < 4.52 | pIC50 (UniProt O94804; cell material: Lysate mix): < 4.52 | pIC50 (UniProt P27448; cell material: Lysate mix): < 4.52 | pIC50 (UniProt P28482; cell material: Lysate mix): < 4.52 | pIC50 (UniProt P48729; cell material: Lysate mix): < 4.52 | pIC50 (UniProt P49840; cell material: Lysate mix): < 4.52 | pIC50 (UniProt P68400; cell material: Lysate mix): 5.39 | pIC50 (UniProt Q00536; cell material: Lysate mix): 5.76 | pIC50 (UniProt Q05397; cell material: Lysate mix): < 4.52 | pIC50 (UniProt Q13233; cell material: Lysate mix): < 4.52 | pIC50 (UniProt Q9Y2I7; cell material: Lysate mix): < 4.52
SMILES: CCNC(=O)c1cc(Nc2cc(C3CC3)[nH]n2)nc(N2CCN(Cc3ccc(S(=O)(=O)F)cc3)CC2)n1
